Laboratory results from US12630600B2 (MEDIMMUNE LIMITED, priority 2022, dated 2026).
Read-outs that look alike come from different tables or passages of the source. Starred links: 1 amine or outer side, 2 acyl side, 3 side chain; linkers in the order of their positions; H or OH if unused. Non-standard residues stand in square brackets, D forms with d. Residues, ends and D or L forms follow the SMILES beside them. Groups on a side chain read outwards from the residue. *: point of attachment. C20 diacid = O=C(O)CCCCCCCCCCCCCCCCCCC(=O)*; C18 diacid = O=C(O)CCCCCCCCCCCCCCCCC(=O)*; γGlu = O=C(O)[C@H](CCC(=O)[*:2])N[*:1]; αMeF = C[C@](N)(Cc1ccccc1)C(=O)O; AEEA = NCCOCCOCC(=O)O; Aib = CC(C)(N)C(=O)O

Key:
Male C57Bl/6 mice = assay: Mouse acute food intake study; format: in vivo; details: s.c., dose 10 nmol/kg, food intake at 24 h vs vehicle
Protocol: Male C57Bl/6 mice obtained from Jackson Laboratories or Charles River at 8-9 weeks of age and were housed one per cage in BioDaq (Research Diets) cages. Mice were placed on Alpha Dri bedding, standard chow diet (Envigo, 2018) and given water pouches. Mice were allowed to acclimate for 1-2 weeks. Body weight was measured to ensure appropriate acclimation. After acclimation, mice were sham dosed a minimum of 2 times prior to initiation of food intake study. On study day, mice were placed in clean cage bottoms, weighed, and fasted for 6-8 hours. Mice were sorted into groups based on average 24-hour food intake data and body weight. 1-2 hours prior to lights out, mice were dosed subcutaneously with one vehicle or test peptide dissolved in an appropriate vehicle at 5 mL/kg. Mice were left undisturbed and allowed access to food and water for 48 hours. Automated food intake was monitored in the BioDaq system was monitored during this time. Discrete food intake data was exported into MS Excel from which cumulative food intake data was generated and analyzed.

wildtype (WT) mice = assay: Glucose change in wildtype mice; format: in vivo, mouse; details: s.c., 1.5 nmol/kg, somatostatin pretreatment 30 min prior to cpd
Method in brief: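 Chow-fed wildtype mice, 8-14 weeks old, n=4-8/group, fasted 2 h before peptide injection, in some studies after octreotide 10 mg/kg 30 min before dosing. Blood glucose by glucometer at −30, 0, 30, 60, 120, 180, 240 and 360 min; mice reused up to 3 times with ≥1-week washout.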

[1] = system: T1, porcine pancreatic pepsin; assay: Proteolytic resistance to FasSSGF containing porcine pancreatic pepsin; format: in vitro ADME; details: pig, simulated gastric fluid
T1 construct: purchased Sigma P7012
Protocol: (§1) Lyophilized porcine pancreatic pepsin (Sigma: P7012) was reconstituted to 0.5 mg/mL (˜2500 units/mL) in freshly prepared FasSSGF (Biorelevant media) to give the enzyme stock solution. Peptide stock solution was prepared to a concentration of 250 μM (˜1.0 mg/mL) in FasSSGF. 200 μL ([…], ˜250 units) of pepsin stock solution was added to 200 μL of peptide solution (1.0 mg/mL, ˜100 μg of peptide, ˜25 nmoles) and the mixture was co-incubated in a temperature-regulated incubator at 37° C. for the duration of the experiment. 30 μL aliquot of the peptide-enzyme mixture was periodically withdrawn (t=0, 5, 10, 15, and 30 min) and quenched immediately by addition of 80 μL of 0.1 M ammonium bicarbonate solution in water/acetonitrile (4:1, pH 8) to arrest proteolytic activity. 30 μL aliquot was analyzed by analytical RP-HPLC. Analytical RP-HPLC method: Agilent Polaris C8-A column (4.6×100 mm, 3 micron) eluted with a linear binary gradient of 10-90°/MeCN (0.1% TFA v/v) in water (0.1% TFA v/v) over either 10 or 15 mins at 1.5 mL min-1 at 40° C. with detection by UV absorption at 210 nm. Manual integration (AUC) allowed estimation of remaining intact peptide over the time course of the experiment.

neprilysin = target: T2, neprilysin (Homo sapiens, UniProt P08473); assay: Proteolytic resistance to neprilysin; format: in vitro ADME; details: pH 8.3
T2 construct: purchased R&D Systems 1182-ZNC-010
Protocol: 10.0 μg (˜10 units) recombinant Neprilysin (R&D Systems: 1182-ZNC-010) was reconstituted to 100 μL (100 μg/mL, ˜100 units/mL) in assay buffer (50 mM Tris, 50 mM NaCl, 50 mM NaHCO3, adjusted to pH 8.3) to give the enzyme stock solution. Peptide stock solutions were prepared to a concentration of ˜250 μM (˜1.0 mg/mL of 4 kDa peptide) in assay buffer. 100 μL (10 μg, ˜10 units) of neprilysin stock solution was added to 100 μL of peptide stock solution (1.0 mg/mL, ˜100 μg of peptide) and the mixture was co-incubated in a temperature regulated incubator at 37° C. for the duration of the experiment. 25 μL aliquots (˜12.5 μg initial peptide) of the peptide-enzyme mixture were periodically withdrawn (t=0, 30 mins, 1 h, 2 h, 4 h and 24 h) and quenched immediately by addition to an equal volume ([…]) of 10% TFA (v/v) in 1:1 water/acetonitrile to arrest proteolytic activity. The quenched aliquot centrifuged at 7800 rpm, and 30 μL of the supernatant was analyzed by analytical RP-HPLC as follows: Analytical RP-HPLC method: Agilent Polaris C8-A column (4.6×100 mm, 3 micron) eluted with a linear binary gradient of 10-90% MeCN (0.1% TFA v/v) in water (0.1% TFA v/v) over either 10 or 15 mins at 1.5 mL min^−1 at 40° C. with detection by UV absorption at 210 nm. Manual integration (AUC) allowed estimation of remaining intact peptide over the time course of the experiment.

Pancreatin = assay: Proteolytic resistance to fasted-state simulated intestinal fluid (FasSSIF/Pancreatin); format: in vitro ADME; details: 0 min, 37° C.
Protocol: A fresh suspension of FasSSIF/P (Fasted-State Simulated Intestinal Fluid+USP Pancreatin®) was prepared according to that described by Galia, Nicolaides, Hörter, Löbenberg, Reppas and Dressman: Pharm. Res. 15 (1998) 698-70.5, and USP XL requirements. The resulting preparation was used immediately without storage.
Peptide for evaluation (1.0 mg) was dissolved in pre-warmed FasSSIF without Pancreatin® (200 μL). To this fresh FasSSIF/Pancreatin® (100 μL) was added to initiate potential proteolysis. Following momentary vortexing of the reaction tube the mixture was incubated at 37° C. in a thermostatic water bath for the duration of the experiment. 25 μL aliquot of the co-incubated peptide-enzyme mixture was periodically withdrawn (t=0, 5, 10 15 and 30 min) and quenched immediately by addition to a solution of 10% TFA in 1:1 water/acetonitrile (75 μL) to arrest proteolytic activity. Quenched samples were centrifuged (7800 RPM, 3 mins) to pellet solids and 10 μL aliquots of the supernatant solution were analyzed using analytical RP-HPLC as follows: Analytical RP-HPLC method: Agilent Polaris C8-A column (4.6×100 mm, 3 micron) eluted with a linear binary gradient of 10-90% MeCN (0.1% TFA v/v) in water (0.1% TFA v/v) over either 10 or 15 mins at 1.5 mL min^−1 at 40° C. with detection by UV absorption at 210 nm. […]

[2] = target: T3, porcine pancreatic pepsin (Sus scrofa, UniProt P00791); assay: Proteolytic resistance to FasSSGF containing porcine pancreatic pepsin; format: in vitro ADME; details: 0 min, FasSSGF with pepsin, 37° C.
T3 construct: purchased Sigma P7012
Protocol: as §1

[3] = dog, in vivo, iv, 10 nmol/kg
Excerpt: (§2) Selected test peptides (n=8) were profiled for pharmacokinetic (PK) properties in the mouse after single intravenous (i.v.) or subcutaneous (s.c.) dose. A subset (n=4) meeting the acceptance criteria was subsequently profiled in the dog (single i.v. dose) and non-human primate (single i.v. and s.c. dose). […] Low-binding plasticware containers were used during preparation and sample handling to avoid non-specific binding.
Blood of each sample was transferred into plastic micro centrifuge tubes containing EDTA-K2, inverted several times for proper mixing of contents and then placed on wet ice.
(§3) Samples analysis: Samples were analyzed by LC-MS/MS. Calibration standards were injected at the beginning and end of each batch and the determined concentration for each prepared standard was used to construct a calibration curve. Plasma and dose aliquot sample concentrations were determined from the plasma calibration curve.
Data analysis: Plasma concentration data was analyzed by non-compartmental analysis (NCA) using Phoenix Winnonlin v. 8.3.3.33. Linear trapezoidal rule was used for increasing values and log trapezoidal rule was used for decreasing values, applying uniform weighting for lambda_z calculations. Subcutaneous bioavailability was calculated as the ratio AUC(s.c.)0-inf/AUC(i.v.)0-inf. Reported values (Table 18) represent the mean of the individual estimates.

[4] = cynomolgus monkey, in vivo, 20 nmol/kg
Excerpt: as §2
Non-human primate: PK was studied in non-naïve male cynomolgus monkeys. After dosing, PK samples were collected from the femoral vein. Blood of each sample was transferred into plastic micro centrifuge tubes containing EDTA-K2, inverted several times for proper mixing of contents and then placed on wet ice.
as §3
Data analysis: Plasma concentration data was analyzed by non-compartmental analysis (NCA) using Phoenix Winnonlin v. 8.3.3.33. […] Subcutaneous bioavailability was calculated as the ratio AUC(s.c.)0-inf/AUC(i.v.)0-inf. […]

T2 sequence (P08473 whole entry): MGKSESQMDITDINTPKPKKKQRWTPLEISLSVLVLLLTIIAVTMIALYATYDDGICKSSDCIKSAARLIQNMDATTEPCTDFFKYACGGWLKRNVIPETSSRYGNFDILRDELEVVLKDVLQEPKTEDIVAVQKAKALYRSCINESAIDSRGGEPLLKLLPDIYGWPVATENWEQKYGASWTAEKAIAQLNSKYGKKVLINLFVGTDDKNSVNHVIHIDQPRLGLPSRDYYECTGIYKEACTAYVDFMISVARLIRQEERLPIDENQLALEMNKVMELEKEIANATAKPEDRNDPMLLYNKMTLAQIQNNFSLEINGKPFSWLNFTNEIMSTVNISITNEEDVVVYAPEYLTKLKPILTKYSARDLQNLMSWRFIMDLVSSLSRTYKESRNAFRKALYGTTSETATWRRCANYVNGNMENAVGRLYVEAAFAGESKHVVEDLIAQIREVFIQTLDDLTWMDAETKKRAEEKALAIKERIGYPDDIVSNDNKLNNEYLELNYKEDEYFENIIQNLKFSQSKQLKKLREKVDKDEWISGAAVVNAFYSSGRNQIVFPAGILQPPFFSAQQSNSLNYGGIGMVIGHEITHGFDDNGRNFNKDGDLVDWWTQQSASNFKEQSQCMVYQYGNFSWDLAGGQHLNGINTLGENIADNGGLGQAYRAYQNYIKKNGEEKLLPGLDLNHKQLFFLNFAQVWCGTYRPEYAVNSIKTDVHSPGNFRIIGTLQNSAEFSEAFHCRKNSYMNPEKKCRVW
T3 sequence (P00791 60-385): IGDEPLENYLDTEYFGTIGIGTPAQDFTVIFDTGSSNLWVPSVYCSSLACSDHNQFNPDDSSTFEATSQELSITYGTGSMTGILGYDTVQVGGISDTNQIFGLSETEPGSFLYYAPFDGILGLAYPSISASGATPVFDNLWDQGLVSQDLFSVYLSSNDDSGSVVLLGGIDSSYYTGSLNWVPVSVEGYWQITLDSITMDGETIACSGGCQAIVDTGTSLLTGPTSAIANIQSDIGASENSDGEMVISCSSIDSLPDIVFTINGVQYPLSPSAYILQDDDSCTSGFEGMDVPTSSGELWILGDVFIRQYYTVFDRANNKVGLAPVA

Row | remaining at 10 min, 125 µM [1] | % intact peptide over time, Neprilysin (neprilysin) | half-life [3] | bioavailability [4] | half-life ([4]; iv) | Compound | 24 hr % Vehicle Food Intake (Male C57Bl/6 mice) | WT % glucose change 120 min (wildtype (WT) mice) | % intact peptide over time (min), FasSSIF (Pancreatin) | % intact peptide over time (min), FasSSGF [2]
1 | 60% | 100% | – | – | – | CC[C@H](C)[C@H](NC(=O)[C@H](Cc1c[nH]c2ccccc12)NC(=O)[C@H](CCC(=O)O)NC(=O)[C@@H](NC(=O)[C@](C)(Cc1ccccc1)NC(=O)[C@H](CC(=O)O)NC(=O)[C@H](CCC(N)=O)NC(=O)[C@H](C)NC(=O)[C@H](C)NC(=O)[C@H](CCCCNC(=O)CC[C@H](NC(=O)CCCCCCCCCCCCCCCCC(=O)O)C(=O)O)NC(=O)[C@H](CO)NC(=O)[C@H](CC(=O)O)NC(=O)[C@H](CC(C)C)NC(=O)[C@](C)(Cc1ccccc1)NC(=O)[C@H](CCCCN)NC(=O)[C@H](CO)NC(=O)[C@@H](NC(=O)[C@H](CC(=O)O)NC(=O)[C@H](CO)NC(=O)[C@@H](NC(=O)[C@](C)(Cc1ccccc1)NC(=O)[C@H](CO)NC(=O)CNC(=O)[C@H](Cc1c[nH]cn1)NC(=O)C(C)(C)NC(=O)[C@@H](N)Cc1c[nH]cn1)[C@@H](C)O)C(C)C)C(C)C)C(=O)N[C@@H](C)C(=O)N[C@@H](CC(N)=O)C(=O)N[C@H](C(N)=O)[C@@H](C)O [Peptide 7] (H-H[Aib]HGS[αMeF]TSDVSK[αMeF]LDSK([γGlu-C18 diacid])AAQD[αMeF]VEWIANT-NH2; N-terminus assumed) | 55.0% | 5.4% | – | –
2 | – | – | – | – | – | CC[C@H](C)[C@H](NC(=O)[C@H](Cc1ccccc1)NC(=O)[C@H](CCC(=O)O)NC(=O)[C@H](CCCCNC(=O)COCCOCCNC(=O)COCCOCCNC(=O)CC[C@H](NC(=O)CCCCCCCCCCCCCCCCC(=O)O)C(=O)O)NC(=O)[C@H](C)NC(=O)[C@H](C)NC(=O)[C@H](CCC(N)=O)NC(=O)CNC(=O)[C@H](CCC(=O)O)NC(=O)[C@H](CC(C)C)NC(=O)[C@H](Cc1ccc(O)cc1)NC(=O)[C@H](CO)NC(=O)[C@H](CO)NC(=O)[C@@H](NC(=O)[C@H](CC(=O)O)NC(=O)[C@H](CO)NC(=O)[C@@H](NC(=O)[C@H](Cc1ccccc1)NC(=O)[C@@H](NC(=O)CNC(=O)[C@H](CCC(=O)O)NC(=O)C(C)(C)NC(=O)[C@@H](N)Cc1cnc[nH]1)[C@@H](C)O)[C@@H](C)O)C(C)C)C(=O)N[C@@H](C)C(=O)N[C@@H](Cc1c[nH]c2ccccc12)C(=O)N[C@@H](CC(C)C)C(=O)N[C@H](C(=O)N[C@@H](CCCNC(=N)N)C(=O)NCC(=O)N[C@@H](CCCNC(=N)N)C(=O)NCC(=O)O)C(C)C [semaglutide, reference compound] | – | – | 100% | 100%
3 | – | 100% | 86 h | 75% | 130 h | CC[C@H](C)[C@H](NC(=O)C(C)(C)NC(=O)[C@H](CCC(N)=O)NC(=O)[C@@H](NC(=O)[C@](C)(Cc1ccccc1)NC(=O)[C@H](CC(=O)O)NC(=O)[C@H](CCCCNC(=O)COCCOCCNC(=O)COCCOCCNC(=O)CC[C@H](NC(=O)CC[C@H](NC(=O)CCCCCCCCCCCCCCCCCCC(=O)O)C(=O)O)C(=O)O)NC(=O)[C@H](C)NC(=O)[C@H](C)NC(=O)[C@H](CCCNC(=N)N)NC(=O)[C@H](CO)NC(=O)[C@H](CC(=O)O)NC(=O)[C@H](CC(C)C)NC(=O)[C@](C)(Cc1ccccc1)NC(=O)[C@H](CCCCN)NC(=O)[C@H](CO)NC(=O)[C@@H](NC(=O)[C@H](CC(=O)O)NC(=O)[C@H](CO)NC(=O)[C@@H](NC(=O)[C@](C)(Cc1ccccc1)NC(=O)[C@H](CO)NC(=O)CNC(=O)[C@H](Cc1c[nH]cn1)NC(=O)C(C)(C)NC(=O)[C@@H](N)Cc1c[nH]cn1)[C@@H](C)O)C(C)C)C(C)C)C(=O)N[C@@H](C)C(=O)N[C@@H](CC(N)=O)C(=O)N[C@H](C(N)=O)[C@@H](C)O [Peptide 229, H-Aib-H-G-S-αMePhe-T-S-D-V-S-K-αMePhe-L-D-S-R-A-A-K(ε-(O2Oc)-(O2Oc)-γE-γE-C20diacid)20-D-αMePhe-V-Q-Aib-I-A-N-T-amide] (H-H[Aib]HGS[αMeF]TSDVSK[αMeF]LDSRAAK([AEEA-AEEA-γGlu-γGlu-C20 diacid])D[αMeF]VQ[Aib]IANT-NH2) | – | – | – | –
